Data from patent US5635510A, “Substituted pyrrolidin-3-yl-alkyl-piperidines” (Merrell Pharmaceuticals Inc., priority 1994, dated 1997).
pIC50: −log10 of the molar value.

How the values were obtained:
[1] = target: T1, human jejunal NK2 receptor (Homo sapiens, UniProt P21452); assay: Antagonism of iodinated neurokinin A binding to NK2 receptor, HSKR-1 cells (mouse 3T3 fibroblasts expressing the human jejunal NK2 receptor); conditions: NK-2 IC50, HSKR-1 cells, 125I-neurokinin A, mean of several experiments
T1 construct: expressed in transfected cells; host or cells: HSKR-1 cells (mouse 3T3 fibroblasts)
T1 sequence (P21452 1-398): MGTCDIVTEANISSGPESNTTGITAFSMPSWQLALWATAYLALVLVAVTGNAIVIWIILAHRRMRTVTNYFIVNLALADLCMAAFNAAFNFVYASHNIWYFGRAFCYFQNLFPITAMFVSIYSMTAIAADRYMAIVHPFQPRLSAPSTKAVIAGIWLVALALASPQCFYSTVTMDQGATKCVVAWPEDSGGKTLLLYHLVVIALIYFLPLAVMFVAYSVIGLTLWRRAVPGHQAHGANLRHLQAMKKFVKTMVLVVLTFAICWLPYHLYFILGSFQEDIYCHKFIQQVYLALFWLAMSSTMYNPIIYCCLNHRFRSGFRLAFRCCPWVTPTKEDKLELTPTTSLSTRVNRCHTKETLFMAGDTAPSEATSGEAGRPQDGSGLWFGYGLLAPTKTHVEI
Protocol: (§1) ANTAGONISM OF IODINATED TACHYKININ BINDING TO NK1 AND NK2
(§2) RECEPTORS BY PUTATIVE ANTAGONISTS
(§3) The NK1 receptor affinity of proposed tachykinin antagonists was evaluated in guinea pig lungs (Keystone Biologicals, Cleveland, OH), affinity for the NK2 receptor evaluated in HSKR-1 cells (which are mouse 3T3 fibroblasts expressing the human jejunal NK2 receptor) and NK-3 receptor affinity was evaluated in freshly collected guinea pig cerebral cortex. Tissues or cells were homogenized with a Polytron in 15 volumes of 50 mM Tris-HCl buffer (pH 7.4, 4° C.) and centrifuged. The pellet was resuspended in Tris-HCl buffer and was centrifuged; the pellet was washed twice by resuspension. The final pellet was resuspended at a concentration of 40 mg/ml for tissues (guinea pig lung and cerebral cortex) and 20 mg/ml for cells in incubation buffer and remained at room temperature for at least 15 min prior to use. Receptor binding was initiated by addition of 250 ul membrane preparation in duplicate to 0.1 nM of the following radioligands: ^125 I-Bolton Hunter Lys-3 labeled substance P; ^125 iodohistidyl-1-neurokinin A; and ^125 I-Bolton Hunter labeled Lys-4 eledoisin in a final volume of 500 ul of buffer containing 50 mM Tris-HCl (pH 7.4 at room temperature), 0.1% bovine serum albumin, 2 mM MnCl2, 40 ug/ml bacitracin, 4 μg/ml leupeptin and chymostatin, 1 μM thiorphan and various doses of the putative tachykinin antagonists. Incubations were performed at room temperature for 90 min (NK1 receptor assays) or 2 hr (NK2 and NK3 receptor assays); binding was terminated by addition of 50 mM Tris-HCl buffer (pH 7.4, 4° C.) and filtration under vacuum through GF/B filters presoaked with 0.1% polyethyleneimine (NK1 receptor assays) or 0.5% bovine serum albumin (NK2 and NK3 receptor assays). Filter bound radioactivity was quantitated in a gamma counter. Nonspecific binding was defined as binding in the presence of 1 μM substance P, neurokinin A, or eledoisin. Specific binding was calculated by subtracting nonspecific binding from total binding. Competition of iodinated SP, NKA, or eledoisin binding by test compounds or standards was expressed as a percentage of this maximum competition. IC50 values (concentration required to inhibit 50% of receptor binding) were generated for each of the test compounds by nonlinear regression using an iterative curve fitting program (GraphPAD Inplot, San Diego, Calif.).

[2] = target: T2, NK1 receptor (Cavia porcellus, UniProt P30547); assay: Antagonism of iodinated substance P binding to NK1 receptor, guinea pig lung; conditions: NK-1 IC50, guinea pig lung, 125I-substance P, mean of several experiments
T2 construct: evaluated in guinea pig lungs; tissue Keystone Biologicals, Cleveland, OH; host or cells: guinea pig lung
T2 sequence (P30547 whole entry): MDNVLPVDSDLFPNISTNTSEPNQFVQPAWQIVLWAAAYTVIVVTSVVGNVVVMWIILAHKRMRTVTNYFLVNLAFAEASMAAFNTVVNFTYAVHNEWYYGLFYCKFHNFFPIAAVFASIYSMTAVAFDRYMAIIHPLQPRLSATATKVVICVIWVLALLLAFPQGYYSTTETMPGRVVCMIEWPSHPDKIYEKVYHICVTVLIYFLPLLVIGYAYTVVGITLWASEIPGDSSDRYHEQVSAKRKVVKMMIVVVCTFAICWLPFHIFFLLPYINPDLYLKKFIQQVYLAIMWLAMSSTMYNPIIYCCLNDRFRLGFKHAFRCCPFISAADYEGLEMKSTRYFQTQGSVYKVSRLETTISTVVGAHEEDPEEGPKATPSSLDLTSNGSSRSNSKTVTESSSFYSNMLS
Protocol: as §1, §2, §3

[3] = target: T3, NK-3 receptor (Cavia porcellus, UniProt P30098); assay: Antagonism of iodinated eledoisin binding to NK3 receptor, guinea pig cerebral cortex; conditions: NK-3 IC50, guinea pig cerebral cortex, 125I-eledoisin, mean of several experiments
T3 construct: evaluated in freshly collected guinea pig cerebral cortex; from tissue; host or cells: guinea pig cerebral cortex
T3 sequence (P30098 1-440): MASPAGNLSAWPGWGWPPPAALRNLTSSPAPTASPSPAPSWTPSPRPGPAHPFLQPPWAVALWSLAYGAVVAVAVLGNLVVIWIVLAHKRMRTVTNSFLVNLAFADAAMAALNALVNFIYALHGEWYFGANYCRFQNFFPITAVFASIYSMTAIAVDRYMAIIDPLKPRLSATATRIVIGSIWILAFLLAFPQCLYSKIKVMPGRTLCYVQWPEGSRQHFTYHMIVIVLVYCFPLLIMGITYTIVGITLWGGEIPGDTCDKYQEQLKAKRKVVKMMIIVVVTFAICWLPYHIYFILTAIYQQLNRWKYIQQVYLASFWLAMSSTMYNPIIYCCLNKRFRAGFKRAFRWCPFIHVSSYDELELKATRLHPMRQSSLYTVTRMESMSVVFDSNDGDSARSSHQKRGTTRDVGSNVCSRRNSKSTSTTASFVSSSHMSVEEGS
Protocol: as §1, §2
as §3, with “Nonspecific binding was defined as binding in the presence of 1 μM substance P, neurokinin A, or eledoisin.” left out, “IC50 values (concentration required to inhibit 50% of receptor binding) were generated for each of the test compounds by nonlinear regression using an iterative curve fitting program (GraphPAD Inplot, San Diego, Calif.).” left out

COc1cc(C(=O)N2CCC(CCN3CCC(C(N)=O)(c4ccccc4)CC3)(c3ccc(Cl)c(Cl)c3)C2)cc(OC)c1OC (single isomer, unassigned; (-)) [Example 21, (-)-1-[2-[3-(3,4-dichlorophenyl)-1-(3,4,5-trimethoxy-benzoyl)-pyrrolidin-3-yl]-ethyl]-4-phenyl-piperidine-4-carboxylic acid amide]
pIC50 [1]: 6.12 | pIC50 [2]: 6.74 | pIC50 [3]: 5.64
